ChEMBL document CHEMBL1128401, “Structure-activity relationships in the 8-amino-6,7,8,9-tetrahydro-3H-benz[e]indole ring system. 1. Effects of substituents in the aromatic system on serotonin and dopamine receptor subtypes” (J Med Chem, 1995)
Active and inactive are the calls of the source. The rule behind the calls is not given here.

Experiments:
[1] = molecular target: T1, 5-hydroxytryptamine receptor 1A (Rattus norvegicus, UniProt P19327); test: Binding affinity against 5-hydroxytryptamine 1A receptor from CHO-K1 cells, using [3H]8-OH-DPAT as the radioligand.; type: cell-based
T1 sequence (P19327 whole entry): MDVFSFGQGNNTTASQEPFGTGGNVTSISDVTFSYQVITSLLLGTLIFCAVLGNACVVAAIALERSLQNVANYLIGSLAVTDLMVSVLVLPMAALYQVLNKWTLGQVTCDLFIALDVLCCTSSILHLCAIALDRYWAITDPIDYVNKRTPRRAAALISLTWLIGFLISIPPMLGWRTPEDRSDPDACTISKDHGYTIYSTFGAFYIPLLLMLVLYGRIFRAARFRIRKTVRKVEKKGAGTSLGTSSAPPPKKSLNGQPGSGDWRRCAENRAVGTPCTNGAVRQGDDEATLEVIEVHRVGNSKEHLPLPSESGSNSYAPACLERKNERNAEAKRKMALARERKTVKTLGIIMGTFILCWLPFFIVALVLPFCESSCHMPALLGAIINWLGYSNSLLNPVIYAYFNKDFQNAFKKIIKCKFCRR

[2] = molecular target: 5-hydroxytryptamine receptor 1B (Homo sapiens, UniProt P28222); test: Binding affinity against 5-hydroxytryptamine 1D receptor beta expressed in CHO-K1 cells, using [3H]5-HT as the radioligand.; type: cell-based
[3] = molecular target: 5-hydroxytryptamine receptor 1D (Homo sapiens, UniProt P28221); test: Binding affinity against 5-hydroxytryptamine 1D receptor alpha expressed in CHO-K1 cells, using [3H]-5-HT as the radioligand.; type: cell-based; conditions: read-out: Ki
D(2) dopamine receptor [4] = molecular target: T2, D(2) dopamine receptor (Rattus norvegicus, UniProt P61169); test: Binding affinity against Dopamine receptor D2 from CHO-K1 cells, using [3H]U-86,170 as the radioligand.; type: cell-based
D(3) dopamine receptor [5] = molecular target: T3, D(3) dopamine receptor (Rattus norvegicus, UniProt P19020); test: Binding affinity against Dopamine receptor D3 from CHO-K1 cells, using [3H]spiperone as the radioligand.; type: cell-based; conditions: read-out: Ki
D(2) dopamine receptor [6] = molecular target: T2, D(2) dopamine receptor; test: Binding affinity against Dopamine receptor D2 expressed in CHO-K1 cells, using [3H]U-86170 as the radioligand.; type: cell-based
D(3) dopamine receptor [7] = molecular target: T3, D(3) dopamine receptor; test: The compound was tested in vitro for binding affinity against cloned mammalian Dopamine receptor D3 expressed in CHO cells by, using [3H]spiperone as radioligand; type: cell-based
Rattus norvegicus [8] = test: The compound was tested in vivo for DOPA accumulation in hemispheres (cortex) against reserpine-pretreated rats; I= inactive at the highest dose tested (50).; type: functional, organism-based
Rattus norvegicus [9] = test: The compound was tested in vivo for DOPA accumulation in limbic system against reserpine-pretreated rats; I= inactive at the highest dose tested (50).; type: functional, organism-based
Rattus norvegicus [10] = test: compound was tested in vivo for 5-HTP accumulation in corpus striatum against reserpine-pretreated rats, activity expressed as ED50; I= inactive at the highest dose tested (50).; type: functional, organism-based
Rattus norvegicus [11] = test: compound was tested in vivo for 5-HTP accumulation in hemispheres (cortex) against reserpine-pretreated rats; I= inactive at the highest dose tested (50).; type: functional, organism-based
Rattus norvegicus [12] = test: compound was tested in vivo for 5-HTP accumulation in limbic system against reserpine-pretreated rats; I= inactive at the highest dose tested (50).; type: functional, organism-based
Rattus norvegicus [13] = test: compound was tested in vivo for DOPA accumulation in corpus striatum against reserpine-pretreated rats; P=significant partial reduction only at the highest dose tested (50).; type: functional, organism-based
Rattus norvegicus [14] = test: The compound was tested in vivo for DOPA accumulation in hemispheres (cortex) against reserpine-pretreated rats;I= inactive at the highest dose tested; type: functional, organism-based
Rattus norvegicus [15] = test: compound was tested in vivo for 5-HTP accumulation in corpus striatum against reserpine-pretreated rats, activity expressed as ED50; type: functional
Rattus norvegicus [16] = test: In vivo for DOPA accumulation in corpus striatum against reserpine-pretreated rats.; type: functional
Rattus norvegicus [17] = test: In vivo for 5-HTP accumulation in corpus striatum against reserpine-pretreated rats.; type: functional
Rattus norvegicus [18] = test: In vivo for 5-HTP accumulation in hemispheres (cortex) against reserpine-pretreated rats.; type: functional
Rattus norvegicus [19] = test: In vivo for 5-HTP accumulation in limbic system against reserpine-pretreated rats.; type: functional
Rattus norvegicus [20] = test: In vivo for DOPA accumulation in limbic system against reserpine-pretreated rats.; type: functional
Rattus norvegicus [21] = test: The Compound was tested in vivo for DOPA accumulation in hemispheres (cortex) against reserpine-pretreated rats;I= inactive at the highest dose (12.5); type: functional, organism-based
D(3) dopamine receptor [22] = molecular target: T3, D(3) dopamine receptor; test: Binding affinity against Dopamine receptor D3 expressed in CHO-K1 cells, using [3H]spiperone as the radioligand.; type: cell-based
Rattus norvegicus [23] = test: The Compound was tested in vivo for DOPA accumulation in hemispheres (cortex) against reserpine-pretreated rats; I=inactive at the highest dose tested (3.1).; type: functional, organism-based
Rattus norvegicus [24] = test: Compound was tested in vivo for DOPA accumulation in corpus striatum against reserpine-pretreated rats;P= significant partial reduction only at the highest dose tested (40).; type: functional, organism-based
Rattus norvegicus [25] = test: Compound was tested in vivo for 5-HTP accumulation in hemispheres (cortex) against reserpine-pretreated rats; significant partial reduction only at the highest dose tested (40).; type: functional, organism-based
Rattus norvegicus [26] = test: The Compound was tested in vivo for DOPA accumulation in hemispheres (cortex) against reserpine-pretreated rats;I= inactive at the highest dose (40); type: functional, organism-based
Rattus norvegicus [27] = test: The Compound was tested in vivo for DOPA accumulation in limbic system against reserpine-pretreated rats; P=significant partial reduction only at the highest dose tested (40).; type: functional, organism-based
Rattus norvegicus [28] = test: The Compound was tested in vivo for DOPA accumulation in hemispheres (cortex) against reserpine-pretreated rats; I=inactive at the highest dose tested (50).; type: functional, organism-based
Rattus norvegicus [29] = test: Bioavailability in male Sprague-Dawley rats, after the iv administration at a dose of 2.0(pmol/g/h); type: ADME, organism-based; conditions: in vivo
Rattus norvegicus [30] = test: Bioavailability in male Sprague-Dawley rats, after the po administration at a dose of 10.0(pmol/g/h); type: ADME, organism-based; conditions: in vivo
[31] = Bioavailability in rat plasma following iv/po dose; type: ADME, organism-based
[32] = tmax in hours at a iv dose of 2.0(pmol/g/h).; type: ADME, organism-based; conditions: in vivo
[33] = tmax in hours at a po dose of 10.0(pmol/g/h).; type: ADME, organism-based; conditions: in vivo, 10 pmol/g/h
[34] = Ratio of the 5-HTP accumulation decrease in limbic regions after oral and subcutaneous administration in rat.; type: functional, Limbic system

Sequence of 5-hydroxytryptamine receptor 1B (P28222 whole entry): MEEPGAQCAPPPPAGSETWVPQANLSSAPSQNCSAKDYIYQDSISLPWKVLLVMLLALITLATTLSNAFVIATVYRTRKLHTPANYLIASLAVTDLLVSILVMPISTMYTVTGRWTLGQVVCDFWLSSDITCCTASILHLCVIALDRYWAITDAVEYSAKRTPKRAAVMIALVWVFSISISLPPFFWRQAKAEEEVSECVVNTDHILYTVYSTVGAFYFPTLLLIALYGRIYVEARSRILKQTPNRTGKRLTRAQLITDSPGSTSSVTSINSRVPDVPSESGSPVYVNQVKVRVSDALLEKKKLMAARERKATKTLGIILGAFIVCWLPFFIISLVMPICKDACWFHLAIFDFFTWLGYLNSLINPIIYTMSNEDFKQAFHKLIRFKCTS
T2 sequence (P61169 whole entry): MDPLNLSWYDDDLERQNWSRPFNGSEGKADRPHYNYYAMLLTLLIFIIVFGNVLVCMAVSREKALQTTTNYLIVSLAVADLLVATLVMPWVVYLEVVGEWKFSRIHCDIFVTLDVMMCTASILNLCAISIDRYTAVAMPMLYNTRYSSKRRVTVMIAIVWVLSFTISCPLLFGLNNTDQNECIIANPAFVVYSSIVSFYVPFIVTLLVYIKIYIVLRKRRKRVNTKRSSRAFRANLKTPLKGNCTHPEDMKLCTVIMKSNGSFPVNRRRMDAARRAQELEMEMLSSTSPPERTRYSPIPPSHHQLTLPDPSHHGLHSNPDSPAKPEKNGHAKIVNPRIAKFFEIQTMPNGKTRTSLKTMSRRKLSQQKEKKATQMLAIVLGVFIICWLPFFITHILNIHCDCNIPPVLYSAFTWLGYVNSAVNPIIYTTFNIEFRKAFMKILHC
T3 sequence (P19020 whole entry): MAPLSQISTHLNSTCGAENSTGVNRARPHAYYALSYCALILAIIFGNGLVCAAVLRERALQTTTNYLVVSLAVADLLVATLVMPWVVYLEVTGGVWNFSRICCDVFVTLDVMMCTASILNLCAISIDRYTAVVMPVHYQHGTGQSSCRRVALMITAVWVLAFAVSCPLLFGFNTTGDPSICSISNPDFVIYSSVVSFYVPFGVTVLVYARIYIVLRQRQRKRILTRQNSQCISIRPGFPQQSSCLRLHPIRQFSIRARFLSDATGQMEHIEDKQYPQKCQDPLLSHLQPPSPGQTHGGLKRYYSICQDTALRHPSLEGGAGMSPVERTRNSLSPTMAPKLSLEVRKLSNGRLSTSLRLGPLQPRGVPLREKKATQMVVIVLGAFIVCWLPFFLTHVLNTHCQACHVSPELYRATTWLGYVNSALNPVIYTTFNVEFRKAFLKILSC
Sequence of 5-hydroxytryptamine receptor 1D (P28221 whole entry): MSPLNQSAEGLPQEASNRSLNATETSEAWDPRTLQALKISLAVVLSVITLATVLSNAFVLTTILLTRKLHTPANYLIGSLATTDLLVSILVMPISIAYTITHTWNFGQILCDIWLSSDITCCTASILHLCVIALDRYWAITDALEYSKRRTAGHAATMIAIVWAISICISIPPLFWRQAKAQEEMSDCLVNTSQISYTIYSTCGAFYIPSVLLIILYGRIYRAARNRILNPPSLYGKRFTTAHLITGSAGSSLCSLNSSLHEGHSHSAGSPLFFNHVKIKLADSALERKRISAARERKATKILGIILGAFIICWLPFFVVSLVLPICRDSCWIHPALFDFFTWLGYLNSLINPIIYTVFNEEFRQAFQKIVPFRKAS

| Compound | Ki [1] [nM] | Ki ([2]; read-out: Ki) [nM] | Ki [3] [nM] | Ki (D(2) dopamine receptor [4]) [nM] | Ki (D(3) dopamine receptor [5]) [nM] | Ki (D(2) dopamine receptor [6]) [nM] | ED50 (Rattus norvegicus [16]) [µmol/kg] | ED50 (Rattus norvegicus [17]) [µmol/kg] | ED50 (Rattus norvegicus [18]) [µmol/kg] | ED50 (Rattus norvegicus [19]) [µmol/kg] | ED50 (Rattus norvegicus [20]) [µmol/kg] | other results |
| --- | --- | --- | --- | --- | --- | --- | --- | --- | --- | --- | --- | --- |
| CCCN(CCC)C1CCc2cc(F)c3c(ccn3C)c2C1 (centres undefined) | 250 | 1650 | 217 | 86 | 52 |  |  |  |  |  |  |  |
| CCCN(CCC)C1CCc2ccc3[nH]cc(CC(F)(F)F)c3c2C1 (centres undefined) | 18 | 409 | 54 |  |  | 86 |  |  |  |  |  | Ki (D(3) dopamine receptor [7]): 134 nM; ED50 (Rattus norvegicus [8]): inactive; ED50 (Rattus norvegicus [9]): inactive; ED50 (Rattus norvegicus [10]): inactive; ED50 (Rattus norvegicus [11]): inactive; ED50 (Rattus norvegicus [12]): inactive; ED50 (Rattus norvegicus [13]): Weak activity |
| CCCN(CCC)[C@H]1CCc2ccc3[nH]cc(C=O)c3c2C1 |  | 939 | 155 | 423 | 751 |  |  |  |  |  |  | ED50 (Rattus norvegicus [14]): inactive; ED50 (Rattus norvegicus [15]): 0.0052 µmol/kg |
| CCCN(CCC)C1CCc2cc(F)c3[nH]ccc3c2C1 (centres undefined) | 1.4 | 216 |  | 2.8 |  |  | 1 | 0.06 | 0.54 | 1.92 | 1.17 | ED50 (Rattus norvegicus [21]): inactive |
| CCCN(CCC)[C@H]1CCc2ccc3[nH]ccc3c2C1 |  | 2280 | 440 |  |  | 17 | 0.82 | 0.34 | 0.23 | 0.21 | 0.51 | Ki (D(3) dopamine receptor [22]): 22 nM; ED50 (Rattus norvegicus [23]): inactive |
| CCCN(CCC)[C@@H]1CCc2cc(F)c3[nH]ccc3c2C1 | 1.5 | 142 |  | 7.8 |  |  | 0.63 | 0.7 | 0.51 | 0.53 | 0.49 | ED50 (Rattus norvegicus [21]): inactive |
| CCCN(CCC)[C@@H]1CCc2ccc3[nH]ccc3c2C1 |  | 139 | 16 |  |  | 7.4 |  | 0.17 |  | 0.21 | 0.15 | Ki (D(3) dopamine receptor [22]): 30 nM; ED50 (Rattus norvegicus [23]): inactive |
| CCCN(CCC)C1CCc2cc(F)c3[nH]cc(C(=O)CC)c3c2C1 (centres undefined) | 7.1 |  | 36 | 377 | 542 |  |  | 3.94 |  | 6.34 |  | Ki ([2]; cho-k1): Not Active; ED50 (Rattus norvegicus [24]): Weak activity; ED50 (Rattus norvegicus [25]): Active; ED50 (Rattus norvegicus [26]): inactive; ED50 (Rattus norvegicus [27]): Weak activity |
| CCCN(CCC)C1CCc2ccc3c(c2C1)CC(=O)N3 (centres undefined) | 14 | 194 | 26 | 11 | 23 |  | 0.25 | 0.41 | 0.86 | 0.45 | 0.17 | ED50 (Rattus norvegicus [28]): inactive |
| CN(C)[C@H]1CCc2ccc3[nH]ccc3c2C1 |  |  |  |  |  |  |  |  |  |  |  | AUC (Rattus norvegicus [29]): 607 pM ml-1; AUC (Rattus norvegicus [30]): 2224 pM ml-1; bioavailability [31]: 72%; Tmax [32]: 2 h; Tmax [33]: 48 h; ED50 ratio [34]: 18 |
| CCCN(CCC)C1CCc2ccc3[nH]cc(C(=O)c4ccccc4)c3c2C1 (centres undefined) | 8.6 |  |  |  |  | 177 |  |  |  |  |  | Ki (D(3) dopamine receptor [22]): 108 nM |
